The structures appear in SMILES notation.

The nature of data set [1]: Artificially induced deciduoma in ovariectomized mice. It is filed as in vivo, mouse. To be noted: female, FVB/NJ, mouse, serum, subcutaneous, 2 mg/100 g of body weight; measured on day +5; DHEA-treated group; read-out: Serum DHEA levels. Here is the method: (§1) This induced deciduoma model allowed the study of the effect of increased DHEA on implantation independently of embryo development and ovarian function. Female mice 6-8 weeks of age were ovariectomized and rested for 2 weeks. […] At day 2 before induction, the experimental mice also began receiving DHEA at 2 mg/100 g of body weight. The control mice received no DHEA. At day 0, one uterine horn in each animal was subjected to a physical stimulus, 100 μL sesame seed oil injection, to induce a deciduoma. The second horn was left as the unstimulated internal control for each mouse. Day 0 in this case is equivalent to the day of embryo implantation in a physiological mouse pregnancy, which is 4 days post coitus. Five days after the oil injection, uterine horns were dissected out. First the gross anatomies of the uteri were assessed. Representative tissues from two mice in each treatment group are shown (FIG. 7B). […] Protein was isolated from all uterine horns in order to measure the expression of a well-established decidualization protein marker, Bmp2. […] Bmp2 expression was almost undetectable in the unstimulated uterine horns. […] In the same line of experiments, the serum hormone levels were also measured to confirm that findings were strictly the result of increased levels of DHEA.
(§2) Decidualization in vivo under chronically elevated levels of DHEA was also tested. The ovariectomy mouse model described above was used with the following changes: DHEA was administered orally (0.6% supplementation in regular chow diet) starting on the day of ovariectomy. The mice were on the diet for 2 weeks prior to the beginning of the hormone regiments described in FIG. 7A. In FIG. 8A, representative uterine horns are shown from control mice (receiving regular chow) and the treatment mice on 0.6% DHEA diet. […] A quantitative analysis of the decidual reaction in shown in FIG. 8B, where the mass of the uterine horns is shown. Lastly, it should be noted that ovariectomised mice, similar to post-menopausal women, tend to have increased body fat percentage.
(§3) To generate deciduomas 7-8 wk-old female FVB/NJ mice were used and treated as described previously. A time line of the hormone administrations is presented in FIG. 7a, adapted from Herington et al. Briefly, mice were ovariectomized and allowed 2 weeks for recovery. They were then injected with 100 ng 17b-estradiol (E2) (Sigma) for three days, rested two days, and then injected with 10 ng E2/1 μg Progesterone (P4, Sigma) for three days. […] Immediately following the last of the above sensitization injections, the right uterine horn received an intra-luminal injection of 100 μL of sunflower seed oil. Mice continued to receive 1 μg P4 subcutaneously for up to 4 days. Mice receiving the DHEA treatment received […] starting on the day the E2/P4 injections were begun and continued for the 7 days following, until mice were sacrificed. On the day following the last injection, serum samples were collected, the mice were sacrificed and uterine horns dissected out. Serum DHEA, E2 and P4 levels were analyzed by ELISA assays (Alpco Immunoassays).

For data set [2], the system named is FVB/NJ mice. The description is as above. Format: in vivo, mouse. Here is the method: as §1, §2, §3
Data set [3] concerns FVB/NJ mice. Put plainly: Ovarian histology and follicle counts in DHEA-fed mice. It is filed as in vivo, mouse. To be noted: 0.6% DHEA diet. The text has this: (§4) Female FVB/NJ mice were obtained from Jackson Laboratories (Bar Harbor, Me., USA). Regular rodent chow was supplemented with DHEA at 0.01%, 0.1% and 0.6% w/w. Three-week-old mice had access to food and water ad libitum. Mice were fed control or DHEA-supplemented chow for two weeks. The Animal Studies Committee at Washington University School of Medicine reviewed and approved all animal experiments. Animals were maintained according to the Guide for the Care and Use of Laboratory Animals provided by the Institute for Laboratory Animal Research.
For histological evaluation, one ovary from five mice in each group was fixed in Bouin's solution, transferred to 70% ethanol then embedded in paraffin and serial sectioned at 10 microns. Every tenth section was kept and stained with hematoxylin and eosin. Follicles with visible nuclei were classified as primordial, primary, secondary or antral. Corpora lutea were also counted. Follicle counts from each classification were summed for each mouse.

Data set [4] concerns FVB/NJ mice. The data set is described as follows: Pregnancy rates / litters of DHEA-fed mice. It is filed as in vivo, mouse. The protocol:
To determine the reversibility of DHEA, mice were fed the two higher DHEA diets that prevented normal estrous cycles for two weeks followed by regular rodent chow for two weeks. Estrous cycles and pregnancy rates were recorded.
as §4
Control and DHEA-fed mice were mated with males of known fertility until three litters were delivered or up to 12 weeks.

Data set [5] relates to denuded GV oocytes. Put plainly: ATP and citrate levels in single denuded GV oocytes of DHEA-fed mice. Format: in vivo, mouse. The text has this: (§5) COCs were collected following superovulation with PMSG. Ovaries were removed and placed in M2 media (Sigma, St. Louis, Mo., USA). COCs were obtained by rupture of antral follicles with a syringe and needle. To collect denuded germinal vesicle (GV) oocytes, the cumulus cells were removed by gentle pipetting. The oviducts were removed from PMSG- and hCG-primed mice. The ampulla of the oviduct was punctured to release the clutch of ovulated oocytes 24 hr after hCG.
(§6) Denuded oocytes or cultured blastocysts were frozen on a glass slide with liquid nitrogen and dried overnight at −35° C. under vacuum. Individual oocytes or blastocysts were extracted in nanoliter volume under oil. Assays were designed to measure ATP, citrate and G6PDH by linking with NAD/NADH or NADP/NADPH which are enzymatically amplified in a cycling reaction allowing products to be measured by fluorometry.

Data set [6] concerns the target T1, G6PDH (Mus musculus, UniProt Q00612).
T1 construct: Individual oocytes or blastocysts were extracted in nanoliter volume under oil; from tissue; host or cells: denuded germinal vesicle oocytes of mice
Put plainly: G6PDH enzyme activity in single oocytes of DHEA-fed mice. Format: in vivo.
Description: as §5, §6

Data set [7] deals with blastocysts. Put plainly: ATP and citrate levels in blastocysts cultured from two-cell embryos with DHEA. It is filed as cell-based, mouse. The protocol: (§7) Mice were superovulated and mated with males of known fertility. Forty-five hours after injection with hCG, the oviducts were removed. Two-cell embryos were collected by flushing the oviducts with human tubal fluid media (HTF) with 0.25% BSA. Embryos were cultured in HTF with BSA and either DMSO, 10 μM DHEA or 100 μM DHEA for 72 hours. In vitro cultured blastocysts were transferred to 2.5 days postcoitus (dpc) pseudopregnant ICR females. Resulting embryos and placentas were collected at 14.5 dpc and fixed with Bouin's solution, embedded in paraffin and sectioned.
as §6

Data set [8] concerns embryos. Put plainly: Transfer of blastocysts cultured in DHEA to pseudopregnant females. Format: in vivo, mouse. The protocol: as §7

T1 sequence (Q00612 whole entry): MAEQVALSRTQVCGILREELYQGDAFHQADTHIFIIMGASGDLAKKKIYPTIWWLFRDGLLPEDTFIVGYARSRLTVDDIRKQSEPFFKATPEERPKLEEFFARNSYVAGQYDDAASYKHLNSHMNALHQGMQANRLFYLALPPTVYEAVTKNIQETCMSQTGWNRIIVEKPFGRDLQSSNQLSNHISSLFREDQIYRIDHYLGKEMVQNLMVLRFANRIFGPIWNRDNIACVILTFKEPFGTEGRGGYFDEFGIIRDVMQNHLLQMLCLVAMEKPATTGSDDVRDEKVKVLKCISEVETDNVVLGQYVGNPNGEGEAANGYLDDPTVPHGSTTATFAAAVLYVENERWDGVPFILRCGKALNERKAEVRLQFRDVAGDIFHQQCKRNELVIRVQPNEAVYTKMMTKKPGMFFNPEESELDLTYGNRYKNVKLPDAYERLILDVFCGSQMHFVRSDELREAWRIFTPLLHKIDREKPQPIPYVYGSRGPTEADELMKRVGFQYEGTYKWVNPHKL

On to `C[C@]12CC[C@H](O)CC1=CC[C@@H]1[C@@H]2CC[C@]2(C)C(=O)CC[C@@H]12` [DHEA, dehydroepiandrosterone], for which the concentration at 5 day (after oil injection on day 0) in data set [1] worked out at 32.6 ng/mL. In addition, the “Deciduoma formation under chronic DHEA” value in data set [2] (0.6% DHEA in chow, oral, from day of ovariectomy) was “no difference between the stimulated and unstimulated uterine horns”. Further, in data set [2] (DHEA 2 mg/100 g of body weight), the “Decrease in Bmp2 protein induction in deciduomas vs control mice (Western blot)” value stood at 3 fold, the “Decrease in the decidual response by uterine mass vs controls” value is roughly 3 fold and the “Morphology of uterine cross sections of stimulated horns” value is on record as “no decidual cells”. Moreover, in data set [2] (DHEA 2 mg/100 g of body weight from day 2 before induction, 5 days after oil injection), the “Gross deciduoma formation along the stimulated uterine horn” value is recorded as “weak, if any, deciduoma formation”. For the same molecule, the Ovarian morphology entry in data set [3] was “large cystic structures”. The “Litters while on diet” value in data set [4] (0.01% DHEA diet) is on record as “the litters were smaller than the controls”. Moreover, in data set [4] (0.1% and 0.6% DHEA diet), the “Litters while on diet” value is given as “did not deliver any pups”. For the same molecule, the “Citrate, of control” value in data set [5] (0.01% DHEA group) was found to be 90%. Further, in data set [5] (0.1% DHEA group), the “Citrate compared to control” value is given as 83%. For the same molecule, the G6PDH activity result in data set [6] (0.01% DHEA and 0.1% DHEA groups) is listed as “decreased”. For the same molecule, in data set [6] (0.1% DHEA diet), the “G6PDH activity, of normal” value is listed as 87%. In addition, in data set [7] (10 μM DHEA), the “Citrate levels of control” value came out at 86%. Also, in data set [7] (100 μM DHEA), the “Citrate levels of control” value was found to be 68%. Further, in data set [8], the “Anomalies in the fetuses or abnormal placental histology” value is “did not lead to increased anomalies” and the “Fetus size at 14.5 dpc” value is given as “significantly smaller fetuses”. Also, the “Placenta size at 14.5 dpc” value in data set [8] (p=0.054) is listed as “smaller placentas”.
